# Assay results from patent US20190233884A1 (University of Southern California, priority 2016, published 2019).
# System: patients with refractory metastatic colorectal cancer (mCRC)
# Test: PFS, OS and disease control in the training (evaluation) cohort of refractory mCRC patients receiving TAS-102 (n=52, Japan), by baseline characteristics, SNP genotype and toxicity
# Type: in vivo, human
# Conditions: for OS (median) / PFS (median): evaluation cohort (JPN TAS-102); for Disease Control CR/PR/SD, patients n (%) / Median OS (95% CI) / Median PFS (95% CI) / PD, patients n (%) / HR OS (95% CI) / HR PFS (95% CI) / Disease Control Rate SD, patients n (%): evaluation cohort
# Protocol: All patients underwent the treatment in salvage-line setting. […]
# (§1) Genomic DNA was extracted from peripheral whole blood in patients of all cohorts using the QIAmp Kit (Qiagen, Valencia, Calif., USA) according to the manufacturer's protocol (www.qiagen.com). The candidate SNPs were genotyped using PCR-based direct DNA sequence analysis by ABI 3100A Capillary Genetic Analyzer and Sequencing Scanner v1.0 (Applied Biosystems). Amplification of extracted DNA was carried out using both forward and reverse primers for each gene polymorphism as shown in Table 1. […] The investigators analyzing SNPs were blinded to the clinical data of the study patients.
# The primary endpoint in this study was progression-free survival (PFS), and the secondary endpoints were overall survival (OS) and disease control rate (DCR). PFS was calculated from the date of starting treatment to the first observation of disease progression or death from any cause. If a patient had no disease progression or death, PFS was censored at the date of last follow up. OS was calculated from the date of starting treatment until the date of death from any cause or the date of the last follow-up, at which point OS was censored. The disease control rate (DCR) was defined as the proportion of patients who achieved a stable disease (SD) or […] according to RECISTv1.1. Chi-square test was used to examine the difference in baseline patient characteristics among the three cohorts. Allelic distribution of all SNPs by ethnicity for deviation from Hardy-Weinberg equilibrium and the allelic frequencies of SNPs were tested using the Chi-square tests with one degree of freedom. The associations between candidate SNPs and disease control, and toxicities were examined using contingency tables and Fisher's exact test. The associations of SNPs with PFS and OS were analysed using Kaplan-Meier curves and the log-rank test. Because the true mode of inheritance of candidate SNPs was not established yet, a codominant or dominant genetic model if appropriate was considered.
# All patients underwent the treatment in salvage-line setting. […] In all patients, adverse events were graded according to the Common Terminology Criteria for Adverse Events, version 4.0. […]
# as §1, with “tested” for “genotyped”, “Biosystems).” for “Biosystems). Amplification of extracted DNA was carried out using both forward and reverse primers for each gene polymorphism as shown in Table 1.”, “data.” for “data of the study patients.”
# The primary endpoint in this study was progression-free survival (PFS), and the secondary endpoints were overall survival (OS) and disease control rate (DCR).
# [1] = PCNA rs25406 G/A vs G/G, univariate
# [2] = Pin1 rs2233678 G/C vs G/G, multivariable
# [3] = Pin1 rs2233678 G/C vs G/G, univariate
# [4] = Pin1 rs2233679 Any T vs C/C, multivariable
# [5] = Pin1 rs2233679 Any T vs C/C, univariate
# [6] = Pin1 rs2233679 C/T vs C/C, multivariable
# [7] = Pin1 rs2233679 C/T vs C/C, univariate
# [8] = Pin1 rs2233679 T/T vs C/C, multivariable
# [9] = Pin1 rs2233679 T/T vs C/C, univariate
# [10] = RAD51 rs1801320 G/C vs G/G, multivariable
# [11] = RAD51 rs1801320 G/C vs G/G, univariate
# [12] = ATM rs609429 Any G vs C/C (Ref.), multivariable
# [13] = ATM rs609429 Any G vs C/C (Ref.), univariate
# [14] = ATM rs609429 G/C vs C/C (Ref.), multivariable
# [15] = ATM rs609429 G/C vs C/C (Ref.), univariate
# [16] = ATM rs609429 G/G vs C/C (Ref.), multivariable
# [17] = ATM rs609429 G/G vs C/C (Ref.), univariate
substance,measurement,setting,value
Trifluridine/tipiracil [TAS-102],OS HR (95% CI)†,[1],"0.62 (0.22, 1.71)"
same,PFS HR (95% CI) †,[1],"0.68 (0.32, 1.41)"
same,"OS median, months (95% CI)",PCNA rs25406 G/G,"8.3 (2.7, 14.8+) months"
same,"PFS median, months (95% CI)",PCNA rs25406 G/G,"2.1 (1.6, 4.2) months"
same,"OS median, months (95% CI)",Pin1 rs2233678 G/C,"4.2 (2.7, 5.7+) months"
same,"PFS median, months (95% CI)",Pin1 rs2233678 G/C,"1.7 (1.6, 1.8+) months"
same,OS HR (95% CI)‡,[2],"7.21 (1.47, 35.33)"
same,PFS HR (95% CI) ‡,[2],"5.08 (1.11, 23.23)"
same,OS HR (95% CI)†,[3],"4.23 (0.92, 19.42)"
same,PFS HR (95% CI) †,[3],"3.66 (0.79, 16.99)"
same,"OS median, months (95% CI)",Pin1 rs2233678 G/G,"8.3 (6.3, 15.6+) months"
same,"PFS median, months (95% CI)",Pin1 rs2233678 G/G,"2.9 (2.1, 3.4) months"
same,"OS median, months (95% CI)",Pin1 rs2233679 Any T,"8.3 (6.3, 14.8+) months"
same,"PFS median, months (95% CI)",Pin1 rs2233679 Any T,"3.3 (1.8, 3.7) months"
same,OS HR (95% CI)‡,[4],"1.05 (0.43, 2.54)"
same,PFS HR (95% CI) ‡,[4],"1.01 (0.53, 1.94)"
same,OS HR (95% CI)†,[5],"0.95 (0.40, 2.26)"
same,PFS HR (95% CI) †,[5],"0.84 (0.45, 1.57)"
same,"OS median, months (95% CI)",Pin1 rs2233679 C/C,"7.2 (4.9, 15.6+) months"
same,"PFS median, months (95% CI)",Pin1 rs2233679 C/C,"2.3 (1.8, 3.4) months"
same,"OS median, months (95% CI)",Pin1 rs2233679 C/T,"8.3 (6.3, 12.4+) months"
same,"PFS median, months (95% CI)",Pin1 rs2233679 C/T,"2.9 (1.8, 3.7) months"
same,OS HR (95% CI)‡,[6],"1.04 (0.41, 2.64)"
same,PFS HR (95% CI) ‡,[6],"1.03 (0.52, 2.03)"
same,OS HR (95% CI)†,[7],"1.05 (0.41, 2.65)"
same,PFS HR (95% CI) †,[7],"0.90 (0.46, 1.75)"
same,"OS median, months (95% CI)",Pin1 rs2233679 T/T,"8.1 (3.1, 14.8+) months"
same,"PFS median, months (95% CI)",Pin1 rs2233679 T/T,"3.4 (1.6, 4.6) months"
same,OS HR (95% CI)‡,[8],"1.08 (0.24, 4.91)"
same,PFS HR (95% CI) ‡,[8],"0.95 (0.34, 2.67)"
same,OS HR (95% CI)†,[9],"0.74 (0.20, 2.75)"
same,PFS HR (95% CI) †,[9],"0.70 (0.28, 1.79)"
same,"OS median, months (95% CI)",RAD51 rs1801320 G/C,"6.3 (1.4, 8.4+) months"
same,"PFS median, months (95% CI)",RAD51 rs1801320 G/C,"3.2 (0.9, 3.4) months"
same,OS HR (95% CI)‡,[10],"2.28 (0.81, 6.48)"
same,PFS HR (95% CI) ‡,[10],"1.34 (0.60, 3.00)"
same,OS HR (95% CI)†,[11],"2.19 (0.78, 6.14)"
same,PFS HR (95% CI) †,[11],"1.57 (0.70, 3.50)"
same,"OS median, months (95% CI)",RAD51 rs1801320 G/G,"8.3 (5.7, 15.6+) months"
same,"PFS median, months (95% CI)",RAD51 rs1801320 G/G,"2.5 (2.0, 4.1) months"
same,PFS,"TAS-102 cohort n=52, combined hENT1 and OCT2/MATE1 variants: poor (11)",47.0 days
same,PFS,combined hENT1 and OCT2/MATE1 analysis: overall (52),80 days
same,PFS,combined hENT1 and OCT2/MATE1 variants: excellent (21),104.0 days
same,PFS,combined hENT1 and OCT2/MATE1 variants: fair (16),62.0 days
same,PFS,combined hENT1 and OCT2/MATE1 variants: good (4),80 days
same,OS (median),ATM rs609429 C/C (n=14),4.4 months
same,OS (median),"ATM rs609429 any G allele (G/C or G/G, n=38)",8.7 months
same,PFS (median),XRCC3 rs861539 G/A (n=17),3.8 months
same,PFS (median),XRCC3 rs861539 G/G (n=35),2.3 months
same,"Disease Control CR/PR/SD, patients n (%)",ATM rs609429 Any G,10 (29%)
same,Median OS (95% CI),ATM rs609429 Any G,"8.7 (6.3, 15.6+) months"
same,Median PFS (95% CI),ATM rs609429 Any G,"2.7 (2.1, 3.4) months"
same,"PD, patients n (%)",ATM rs609429 Any G,25 (71%)
same,HR OS (95% CI),[12],"0.24 (0.07, 0.80)"
same,HR PFS (95% CI),[12],"1.37 (0.57, 3.26)"
same,HR OS (95% CI),[13],"0.37 (0.14, 0.99)"
same,HR PFS (95% CI),[13],"1.53 (0.70, 3.35)"
same,"Disease Control CR/PR/SD, patients n (%)",ATM rs609429 C/C,5 (45%)
same,Median OS (95% CI),ATM rs609429 C/C,"4.4 (3.1, 8.3+) months"
same,Median PFS (95% CI),ATM rs609429 C/C,"3.3 (1.6, 6.0+) months"
same,"PD, patients n (%)",ATM rs609429 C/C,6 (55%)
same,"Disease Control CR/PR/SD, patients n (%)",ATM rs609429 G/C,8 (32%)
same,Median OS (95% CI),ATM rs609429 G/C,"12.4 (6.3, 15.6+) months"
same,Median PFS (95% CI),ATM rs609429 G/C,"2.9 (1.8, 3.4) months"
same,"PD, patients n (%)",ATM rs609429 G/C,17 (68%)
same,HR OS (95% CI),[14],"0.19 (0.05, 0.68)"
same,HR PFS (95% CI),[14],"1.30 (0.53, 3.19)"
same,HR OS (95% CI),[15],"0.32 (0.11, 0.91)"
same,HR PFS (95% CI),[15],"1.53 (0.68, 3.43)"
same,"Disease Control CR/PR/SD, patients n (%)",ATM rs609429 G/G,2 (20%)
same,Median OS (95% CI),ATM rs609429 G/G,"8.7 (1.2, 14.8+) months"
same,Median PFS (95% CI),ATM rs609429 G/G,"2.6 (1.2, 4.1) months"
same,"PD, patients n (%)",ATM rs609429 G/G,8 (80%)
same,HR OS (95% CI),[16],"0.39 (0.10, 1.54)"
same,HR PFS (95% CI),[16],"1.56 (0.56, 4.37)"
same,HR OS (95% CI),[17],"0.52 (0.16, 1.73)"
same,HR PFS (95% CI),[17],"1.55 (0.59, 4.04)"
same,"Disease Control Rate SD, patients n (%)",ATR rs2227928 A/A,3 (20%)
same,"PD, patients n (%)",ATR rs2227928 A/A,12 (80%)
same,"Disease Control Rate SD, patients n (%)",ATR rs2227928 A/G,7 (32%)
same,"PD, patients n (%)",ATR rs2227928 A/G,15 (68%)
same,"Disease Control Rate SD, patients n (%)",ATR rs2227928 Any G,12 (39%)
same,"PD, patients n (%)",ATR rs2227928 Any G,19 (61%)
same,"Disease Control Rate SD, patients n (%)",ATR rs2227928 G/G,5 (56%)
same,"PD, patients n (%)",ATR rs2227928 G/G,4 (44%)
same,"Disease Control Rate SD, patients n (%)",BRCA1 rs16941 Any C,8 (30%)
same,"PD, patients n (%)",BRCA1 rs16941 Any C,19 (70%)
same,"Disease Control Rate SD, patients n (%)",BRCA1 rs16941 C/C,1 (20%)
same,"PD, patients n (%)",BRCA1 rs16941 C/C,4 (80%)
same,"Disease Control Rate SD, patients n (%)",BRCA1 rs16941 T/C,7 (32%)
